Laboratory results published in patent publication US20220227761A1, “OXOACRIDINYL ACETIC ACID DERIVATIVES AND METHODS OF USE” (STINGTHERA, INC., priority 2019, published 2022).
Values joined by “and” are separate entries in the source; they are usually repeats but may differ in a detail not shown here. Equal values may be shown once.

What was measured:
[1] = tested on: STING protein; IRF/IFN signaling in THP-1 R232 cells; assay: Cell based reporter assay, THP-1 R232 IRF-luc; settings: Homo sapiens, THP1-dual-KI R232 cells, IRF luciferase reporter; for Emax: maximum measured activity, read-out: THP 1-dual-KI R232_IRF(Luciferase)_Activity Maximum measured (%); for IC50: read-out: THP 1-dual-KI R232_IRF(Luciferase) IC50
From the text: Cell reporter assays were developed to measure the ability of compounds of the application to activate the STING protein and activate both IRF/IFN and the NFkB signaling pathways in the myeloid derived cell line THP-1, which is commercially available from several suppliers. Briefly, THP-1 monocytes were transfected and selected for stable integration of 2 reporter constructs. Clones incorporating stably integrated vectors were further selected by antibiotic resistance to blastocidin and zeocin. The reporter constructs included: (1) firefly luciferase reporter gene under the control of an ISG54 promoter fused to five interferon (IFN)-stimulated response elements to measure IRF transcription factor binding activity and (2) secreted embryonic alkaline phosphatase reporter gene under transcription control of an IFN-beta minimal promoter fused to 5 copies of the NFkB consensus transcriptional response element and 3 copies of the c-Rel binding site.
The resulting THP-1 cell line was further modified to incorporate 3 amino acid point mutations (H71R A230G Q293R). This modification of the native TMEM173 gene in THP-1 cells (HAQ) was designed to produce a cell reporter that expressed the most common allelic variant in the human population (THP-1 R232, available from InvivoGen). Alternatively, the TMEM173 gene was knocked out to provide a congenic control to counter-screen for compound activation that was independent of the STING protein (THP-1 STING KO).
Once cell lines were established, reporter assay protocols were developed and optimized to screen small molecule compounds for agonist activity. Assay optimization for efficacy and Z′ value included titration of the following parameters:
• 1. Cell pre-activation with PMA • 2. Cell seeding density • 3. DMSO tolerance • 4. Media selection • 5. FBS concentration • 6. Incubation time • 7. Co-Assessment of cell viability by CTG assay • 8. Appropriate HPE and ZPE controls • 9. Dose Response Titration
• 1. No pre-activation with PMA • 2. 5×10^4 cells/well in 96 well plate format • 3. <0.5% DMSO • 4. RPMI 1640+2.5 mg/ml glucose • 5. 10% FBS • 6. 14-18 hr incubation • 7. Cell Titer Glo reagent (Promega) following supernatant removal • 8. […] 8 point, 2 fold, duplicate starting at 150 μM

[2] = target: hSTING-R232 (aa140-379) (Homo sapiens, UniProt Q86WV6, H232R); assay: STING differential scanning fluorimetry (DSF) assay, hSTING WT; settings: shift in melting temperature apo vs ligand-bound
hSTING-R232 (aa140-379), sequence (Q86WV6 140-379 H232R): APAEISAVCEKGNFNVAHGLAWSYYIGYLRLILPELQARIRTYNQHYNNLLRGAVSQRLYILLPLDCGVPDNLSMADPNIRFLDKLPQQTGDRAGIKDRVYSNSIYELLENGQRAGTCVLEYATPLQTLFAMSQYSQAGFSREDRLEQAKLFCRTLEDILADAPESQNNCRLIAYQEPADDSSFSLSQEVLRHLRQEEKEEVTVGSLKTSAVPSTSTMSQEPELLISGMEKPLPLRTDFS
Protocol: A STING DSF assay was performed to determine protein thermostability shift in response to small molecule ligand binding. A STING thermnostability shift assay based on differential scanning fluorimetry was used to measure (1) the net shift in melting temperature (ΔTm) between the apo and ligand-bound states of the STING protein and (2) the concentration of the thermal denaturation transition (EC50) as a surrogate measure of binding affinity (Kd). […] Protein in assay buffer was transferred to a 384 well plate and incubated with the hydrophobic fluorescent dye SYBR Orange. A temperature ramp was applied to the plate and the resulting dye fluorescence was plotted as a function of temperature. The first derivative of this function (dF/dT) was then used to extrapolate the melting temperature of the protein at various concentrations of compound and determine the thermal denaturation profile of a protein/compound complex.
5 μM purified Target STING Protein • 3. 8 μM Sypro Orange Dye • 4. Buffer: 100 mM NaCl, 30 mM HEPES, pH 7.5 • 5. Thermal Ramp: 0.5° C./min • 6. <1% DMSO • 7. 11 point, 2 fold dilution, duplicate, 300 μM high concentrations • 8.

[3] = target: human STING protein (140-379), WT (Homo sapiens, UniProt Q86WV6, H232R); assay: Radiometric filtration binding competition assay (FBA), hSTING-WT; settings: WT-hSWAT IC50 (μM), WT_FBA_HIS-SUMO-hSWAT; wild-type human STING; competition with [H3] 2′3′cGAMP
human STING protein (140-379), WT, sequence (Q86WV6 140-379 H232R): as above

Row | IC50 [1] [µM] | WT_DSF_hSWAT Tm Shift (° C.) [2] | IC50 [3] | Compound | Emax [1] [%]
1 | < 50 | D (“D” >7° C.) | < 20 µM | C=C(C)c1ccc2c(=O)c3ccc(Cl)c(N(C)C)c3n(CC(=O)O)c2c1 [Compound 24] | > 50
2 | < 50 | D (“D” >7° C.) | < 20 µM | CN(C)c1c(Cl)ccc2c(=O)c3ccc(C4=CCN(C(=O)OC(C)(C)C)C4)cc3n(CC(=O)O)c12 [Compound 25] | > 50
3 | < 50 | B (“B” = 0-2° C.) | > 300 µM | CN(C)c1c(Cl)ccc2c(=O)c3cc(Br)ccc3n(CC(=O)O)c12 [Compound 29] | > 50
4 | < 50 | D (“D” >7° C.) | < 20 µM | CN(C)c1c(Cl)ccc2c(=O)c3cc(-c4ccccc4)ccc3n(CC(=O)O)c12 [Compound 30] | 25 to 50
5 | 50 to 100 | C (“C” = 2-7° C.) | 100 to 300 µM and 20 to 100 µM | Cc1ccc2c(c1)c(=O)c1ccc(Cl)c(N(C)C)c1n2CC(=O)O [Compound 31] | > 50
6 | < 50 | C (“C” = 2-7° C.) | 20 to 100 µM | Cc1cc2c(cc1Br)c(=O)c1ccc(Cl)c(N(C)C)c1n2CC(=O)O [Compound 34] | 5 to 25
7 | < 50 | D (“D” >7° C.) | < 20 µM | CN(C)c1c(Cl)ccc2c(=O)c3ccc(C4CCC4)cc3n(CC(=O)O)c12 [Compound 35] | > 50
8 | < 50 | D (“D” >7° C.) | < 20 µM | CN(C)c1c(Cl)ccc2c(=O)c3ccc(C4CC4)cc3n(CC(=O)O)c12 [Compound 36] | > 50
9 | < 50 | D (“D” >7° C.) | < 20 µM | CCc1ccc2c(=O)c3ccc(Cl)c(N(C)C)c3n(CC(=O)O)c2c1 [Compound 37] | > 50
10 | < 50 | D (“D” >7° C.) | < 20 µM | Cc1ccc2c(=O)c3ccc(C(C)(C)C)cc3n(CC(=O)O)c2c1N(C)C [Compound 39] | > 50
11 | > 150 | D (“D” >7° C.) | > 300 µM | Cc1ccc2c(=O)c3ccc(Cl)c(C(C)C)c3n(CC(=O)O)c2c1 [Compound 46] | 5 to 25
12 | < 50 | D (“D” >7° C.) | < 20 µM | C=C(C)c1c(Cl)ccc2c(=O)c3ccc(C)cc3n(CC(=O)O)c12 [Compound 47] | > 50
13 | 100 to 150 | D (“D” >7° C.) | 20 to 100 µM | Cc1ccc2c(=O)c3c(O)cc(Cl)c(N(C)C)c3n(CC(=O)O)c2c1 [Compound 51] | > 50
14 | < 50 | D (“D” >7° C.) | < 20 µM | CN(C)c1c(Cl)ccc2c(=O)c3ccc(C(C)(C)C#N)cc3n(CC(=O)O)c12 [Compound 52] | > 50
15 | > 150 | C (“C” = 2-7° C.) | 100 to 300 µM | COc1c(Cl)ccc2c(=O)c3ccc(C4CCN(C)CC4)cc3n(CC(=O)O)c12 [Compound 53] | 5 to 25
16 | < 50 | D (“D” >7° C.) | 20 to 100 µM | Cc1ccc2c(=O)c3ccc(Cl)c(N(C)C)c3n(CC(=O)NS(C)(=O)=O)c2c1 [Compound 55] | > 50
17 | > 150 | D (“D” >7° C.) | < 20 µM | CN(C)c1c(Cl)ccc2c(=O)c3ccc(-c4ccco4)cc3n(CC(=O)NS(C)(=O)=O)c12 [Compound 56] | 

Row | IC50 [1] [µM] | WT_DSF_hSWAT Tm Shift (° C.) [2] | IC50 [3] | Compound | Emax [1] [%]
18 | < 50 | D (“D” >7° C.) | < 20 µM | CC(C)c1ccc2c(=O)c3ccc(Cl)c(N(C)C)c3n(CC(=O)O)c2c1 [Compound 58] | > 50
19 | > 150 | B (“B” = 0-2° C.) | > 300 µM | COCCOc1cccc2c(=O)c3ccc(Cl)c(OC)c3n(CC(=O)O)c12 [Compound 60] | 5 to 25
20 | > 150 | B (“B” = 0-2° C.) | > 300 µM | COc1c(Cl)ccc2c(=O)c3cccc(OCCO)c3n(CC(=O)O)c12 [Compound 61] | 5 to 25
21 | > 150 | B (“B” = 0-2° C.) | 20 to 100 µM | O=C(O)Cn1c2ccccc2c(=O)c2ccc(Cl)c(O)c21 [Compound 63] | < 5
22 | < 50 | D (“D” >7° C.) | 20 to 100 µM | C=C(C)c1ccc2c(=O)c3ccc(Cl)c(OC)c3n(CC(=O)O)c2c1 [Compound 65] | > 50
23 | > 150 | C (“C” = 2-7° C.) | > 300 µM | COc1c(Cl)ccc2c(=O)c3ccc(F)cc3n(CC(=O)O)c12 [Compound 67] | 
24 | 50 to 100 | C (“C” = 2-7° C.) | 20 to 100 µM | CCNc1ccc2c(=O)c3ccc(Cl)c(OC)c3n(CC(=O)O)c2c1 [Compound 68] | > 50
25 | < 50 | D (“D” >7° C.) | < 20 µM | CN(C)c1c(Cl)ccc2c(=O)c3ccc(-c4cc[nH]c(=O)c4)cc3n(CC(=O)O)c12 [Compound 69] | > 50
26 | < 50 | C (“C” = 2-7° C.) | < 20 µM | CN(C)c1c(Cl)ccc2c(=O)c3ccc(-c4cnccn4)cc3n(CC(=O)O)c12 [Compound 70] | > 50
27 | < 50 | D (“D” >7° C.) | 20 to 100 µM | CN(C)c1c(Cl)ccc2c(=O)c3ccc(-c4ccnnc4)cc3n(CC(=O)O)c12 [Compound 71] | > 50
28 | < 50 | D (“D” >7° C.) | < 20 µM | CN(C)c1c(Cl)ccc2c(=O)c3cc(Cl)c(Nc4c(F)cccc4F)cc3n(CC(=O)O)c12 [Compound 75] | > 50
29 | < 50 | D (“D” >7° C.) | < 20 µM | CN(C)c1c(Cl)ccc2c1N(CC(=O)O)c1cc(Nc3ccccc3F)ccc1N2C [Compound 78] | > 50
30 | < 50 | D (“D” >7° C.) | < 20 µM | CN(C)c1c(Cl)ccc2c(=O)c3ccc(Nc4cccnc4)cc3n(CC(=O)O)c12 [Compound 80] | > 50
31 | < 50 | D (“D” >7° C.) | < 20 µM | CN(C)c1c(Cl)ccc2c(=O)c3ccc(Nc4ccncc4)cc3n(CC(=O)O)c12 [Compound 81] | > 50
32 | < 50 | D (“D” >7° C.) | 20 to 100 µM | CN(C)c1c(Cl)ccc2c(=O)c3ccc(C4(C#N)CC4)cc3n(CC(=O)O)c12 [Compound 84] | > 50
33 | < 50 | D (“D” >7° C.) | < 20 µM | CC(C)Nc1cc2c(cc1Cl)c(=O)c1ccc(Cl)c(N(C)C)c1n2CC(=O)O [Compound 86] | > 50

Row | Compound | IC50 [1] [µM] | WT_DSF_hSWAT Tm Shift (° C.) [2] | IC50 [3] | Emax [1] [%]
34 | COc1c(Cl)ccc2c(=O)c3ccc(C4=CCN(C)CC4)cc3n(CC(=O)O)c12 [Compound 54] | > 150 | C (“C” = 2-7° C.) | > 300 µM | 5 to 25
